Data set [1] has as its system Mycobacterium tuberculosis. Nature of the data set: Antimycobacterial activity against Mycobacterium tuberculosis H37Rv assessed as inhibition of bacterial growth incubated for 24 hrs by alamar blue assay. Format: functional. On the technique in general: Alamar Blue is a resazurin reagent that responds to reducing activity.
A further data set deals with HT-29. Description: Antiproliferative activity against human HT-29 cells assessed as reduction in cell growth incubated for 24 hrs. As to conditions: HT-29, 24 h. Format: functional, cell-based.
The test system of data set [2] is MCF7. Nature of the data set: Antiproliferative activity against human MCF7 cells assessed as reduction in cell growth incubated for 24 hrs. Format: functional, cell-based. The settings on record: MCF7, 24 h.
In the next data set the test system is Caco-2. Description: Antiproliferative activity against human Caco-2 cells assessed as reduction in cell growth incubated for 24 hrs. Format: functional, cell-based. As to conditions: Caco-2, 24 h.
Another data set concerns NCI-H460. Description: Antiproliferative activity against human NCI-H460 cells assessed as reduction in cell growth incubated for 24 hrs. Format: functional, cell-based. The settings on record: NCI-H460, 24 h.
Data set [3] concerns Pseudomonas aeruginosa. Description: Antibacterial activity against Pseudomonas aeruginosa. Format: functional.
Data set [4] concerns Escherichia coli. Nature of the data set: Antibacterial activity against Escherichia coli. Format: functional.
Data set [5] relates to Staphylococcus aureus. Nature of the data set: Antibacterial activity against Staphylococcus aureus. Format: functional.
Data set [6] relates to HT-1080. Nature of the data set: Cytotoxicity against human HT-1080 cells assessed as reduction in cell growth by MTT assay. Format: functional, cell-based. Background: Tetrazolium dyes change colour on reduction, which living cells bring about.
In data set [7] the test system is MG-22A. Nature of the data set: Cytotoxicity against mouse MG-22A cells assessed as reduction in cell growth by MTT assay. Format: functional, cell-based.
The test system of the next data set is Rhizoctonia solani. Nature of the data set: Antifungal activity against Rhizoctonia solani assessed as inhibition of fungal growth at 1 microg/ml relative to control. Format: functional.
In another data set the test system is Aedes aegypti. Nature of the data set: […] activity against Aedes aegypti assessed as protection time at 0.5 microg/cm. Format: functional.
The test system of another data set is Bacillus sp. Description: Antibacterial activity against Bacillus sp. ATCC 19986 assessed as reduction in bacterial growth incubated for 24 hrs by CLSI micro-dilution method. Format: functional. As to conditions: Bacillus sp. (in: firmicutes). (In general: Broth dilution looks for growth in wells or tubes with falling amounts of substance.)
In a further data set the test system is Penicillium chrysogenum. Nature of the data set: Antifungal activity against Penicillium chrysogenum ATCC 11709 assessed as reduction in fungal growth incubated for 24 hrs by CLSI micro-dilution method. Format: functional.
Data set [8] relates to Pseudomonas aeruginosa. Nature of the data set: Antibacterial activity against Pseudomonas aeruginosa ATCC 27853 assessed as reduction in bacterial growth incubated for 24 hrs by CLSI micro-dilution method. Format: functional.
Data set [9] deals with MCF7. Description: Cytotoxicity against human MCF7 cells assessed as reduction in cell viability by XTT assay. Format: functional, cell-based.
For a further data set, the system named is Aspergillus niger. Description: Antifungal activity against Aspergillus niger ATCC 16888 assessed as reduction in fungal growth incubated for 24 hrs by broth micro-dilution method. Format: functional.
For the next data set, the system named is Fusarium solani. Description: Antifungal activity against Fusarium solani ATCC 20327 assessed as reduction in fungal growth incubated for 24 hrs by CLSI micro-dilution method. Format: functional.
A further data set relates to HepG2. Nature of the data set: Cytotoxicity against human HepG2 cells assessed as reduction in cell viability by XTT assay. Format: functional, cell-based.
Another data set relates to Plutella xylostella. Nature of the data set: Toxicity in Plutella xylostella assessed as lethal dose. Format: organism-based.
In a further data set the test system is Mythimna separata. Description: Toxicity in Mythimna separata assessed as lethal dose. Format: organism-based.
In data set [10] the test system is Staphylococcus aureus. Description: Antibacterial activity against Staphylococcus aureus ATCC 25923 assessed as reduction in cell growth incubated for 18 hrs by two-fold serial dilution method. Format: functional.
Data set [11] relates to Escherichia coli. Nature of the data set: Antibacterial activity against Escherichia coli ATCC 25922 assessed as reduction in cell growth incubated for 18 hrs by two-fold serial dilution method. Format: functional.
The next data set has as its system Acinetobacter baumannii. Nature of the data set: Antibacterial activity against Acinetobacter baumannii ATCC 19606 assessed as reduction in cell growth incubated for 18 hrs by two-fold serial dilution method. Format: functional.
The subject of data set [12] is Pseudomonas aeruginosa. Nature of the data set: Antibacterial activity against Pseudomonas aeruginosa ATCC 27853 assessed as reduction in cell growth incubated for 18 hrs by two-fold serial dilution method. Format: functional.
In a further data set the test system is BJAB. Nature of the data set: Cytotoxicity against human BJAB cells assessed as lethal dose measured after 48 hrs. Format: functional. As to conditions: read-out: LD50 (the source's name).
Another data set addresses Acetylcholinesterase (Homo sapiens, UniProt P22303). Description: Inhibition of AChE (unknown origin) using acetylthiocholine iodide as substrate by Ellman's method.
Another data set relates to HCT-116. Description: Antiproliferative activity against human HCT-116 cells assessed as reduction in cell viability incubated for 72 hrs by MTT assay. Format: functional, cell-based. The settings on record: HCT-116, 72 h.
In data set [13] the target is Sigma non-opioid intracellular receptor 1 (Cavia porcellus, UniProt Q60492). Description: Binding affinity to guinea pig sigma 1 receptor assessed as inhibition constant.
Sigma non-opioid intracellular receptor 1, sequence (Q60492 whole entry): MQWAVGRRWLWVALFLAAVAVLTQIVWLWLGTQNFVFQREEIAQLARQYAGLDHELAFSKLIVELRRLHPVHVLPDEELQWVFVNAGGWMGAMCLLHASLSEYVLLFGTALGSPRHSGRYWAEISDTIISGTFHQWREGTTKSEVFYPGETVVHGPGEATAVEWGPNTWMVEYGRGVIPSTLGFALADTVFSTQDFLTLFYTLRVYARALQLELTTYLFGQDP
The next data set relates to NIH3T3. Description: Cytotoxicity against mouse NIH3T3 cells assessed as reduction in cell growth by measuring lethal concentration for 72 hrs by MTT assay. Format: toxicity, cell-based. The settings on record: nih3t3, 72 h.
The subject of data set [14] is MG-22A. Description: Cytotoxicity against mouse MG-22A cells assessed as reduction in cell growth by measuring lethal concentration for 72 hrs by MTT assay. Format: functional.
The test system of data set [15] is HT-1080. Nature of the data set: Cytotoxicity against human HT-1080 cells assessed as reduction in cell growth by measuring lethal concentration for 72 hrs by MTT assay. Format: functional.
The subject of data set [16] is HT-1080. Nature of the data set: Cytotoxicity against human HT-1080 cells assessed as reduction in cell growth measured for 72 hrs by MTT assay. Format: functional, cell-based. As to conditions: HT-1080, 72 h.
In data set [17] the test system is MG-22A. Nature of the data set: Cytotoxicity against mouse MG-22A cells assessed as reduction in cell growth measured for 72 hrs by MTT assay. Format: functional, cell-based.
In another data set the test system is Giardia intestinalis. Nature of the data set: Antiparasitic activity against Giardia intestinalis Portland 1 assessed as reduction in parasite growth incubated for 48 hrs by MTT assay. As to conditions: Giardia duodenalis, Portland 1, 48 h. Format: functional, organism-based.
The next data set relates to Entamoeba histolytica. Nature of the data set: Antiparasitic activity against Entamoeba histolytica HM-1:IMSS assessed as reduction in parasite growth incubated for 48 hrs by MTT assay. Format: functional, organism-based.

We go through 22 compounds from ChEMBL document CHEMBL6177939, “The role of silicon in drug discovery: a review” (RSC Med Chem, 2024).

In brackets after ≈: the same amount, converted by molar mass.

The term MIC denotes the least concentration at which growth counts as inhibited. As a reminder, the IC50 is the concentration that gives 50% inhibition. One may read the inhibition as how much of the control response was suppressed. The term LC50 denotes the concentration lethal to half of the exposed cells or organisms. Usually Ki stands for a measure of affinity in units of concentration, obtained from inhibition or displacement.

Acetylcholinesterase, sequence (P22303 whole entry): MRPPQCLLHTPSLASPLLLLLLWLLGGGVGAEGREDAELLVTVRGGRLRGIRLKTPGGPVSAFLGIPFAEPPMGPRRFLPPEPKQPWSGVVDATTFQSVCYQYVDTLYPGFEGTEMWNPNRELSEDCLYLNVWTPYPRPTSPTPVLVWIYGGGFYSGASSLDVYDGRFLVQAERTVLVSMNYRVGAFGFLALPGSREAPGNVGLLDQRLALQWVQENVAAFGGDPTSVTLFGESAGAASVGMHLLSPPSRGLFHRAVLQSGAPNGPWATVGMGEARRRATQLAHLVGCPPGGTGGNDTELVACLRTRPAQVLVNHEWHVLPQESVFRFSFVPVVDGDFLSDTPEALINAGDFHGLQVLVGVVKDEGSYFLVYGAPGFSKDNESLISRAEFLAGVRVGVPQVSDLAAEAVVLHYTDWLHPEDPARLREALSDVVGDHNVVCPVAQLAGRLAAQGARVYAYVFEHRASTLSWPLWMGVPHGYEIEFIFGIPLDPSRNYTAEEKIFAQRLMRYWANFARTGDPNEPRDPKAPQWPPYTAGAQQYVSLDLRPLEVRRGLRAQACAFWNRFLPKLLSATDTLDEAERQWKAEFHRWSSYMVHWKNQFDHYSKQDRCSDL

With `Cc1c(CN2CCN(C)CC2)cc(-c2ccc(Cl)cc2)n1-c1ccc(Cl)cc1`, the MIC in [1] worked out at 1.7 µM.

With `CC(C)OC(=O)/C(=N/NC(=O)c1ccc(CO[Si](C)(C)C(C)(C)C)o1)c1ccccc1`, the IC50 in the data set with HT-29 is 3.6 µM; in the data set on MCF7 [2], 3.5 µM; in the data set on Caco-2 it was 40.1 µM; in the data set with NCI-H460, 3.6 µM.

As for `C[Si]1(C)CCN(C(=O)/C=C/C=C/c2ccc3c(c2)OCO3)CC1`, the MIC in data set [1] was determined as 50 µg/mL.

Consider `COc1cc(/C=N/CCC[Si](OC)(OC)OC)ccc1OCc1cn(CCOc2ccccc2[N+](=O)[O-])nn1`, for which the MIC came out at 15 µg/mL (≈ 26.8 µM) against Pseudomonas aeruginosa [3], 15 µg/mL (≈ 26.8 µM) in the data set on Escherichia coli [4] and 1.87 µg/mL (≈ 3.34 µM) in the data set with Staphylococcus aureus [5].

As for `C[Si]1(C)CCN(C(=O)/C=C/c2ccc3c(c2)OCO3)CC1`, the MIC in data set [1] came to 50 µg/mL.

As for `CCCC[Si](CC)(CCCC)OCC[N+](C)(C)C.[I-]`, the IC50 in the data set with HT-1080 [6] came out at 3 µg/mL; in the data set on MG-22A [7], 1 µg/mL.

Take `Cn1cc(C(=O)C(C#N)c2cccc([Si](C)(C)C)c2)c(C(F)F)n1` (centres undefined): the inhibition at 1 µg/mL in the data set on Rhizoctonia solani amounted to 91.2%.

Take `Cn1cc(C(=O)C(C#N)c2ccc([Si](C)(C)C)cc2F)c(C(F)F)n1` (centres undefined): the inhibition at 1 µg/mL with Rhizoctonia solani stood at 91.2%.

Regarding `C[Si]1(C)CCN(C(=O)C2=CCCCC2)CC1`, the Time with Aedes aegypti amounted to 756 min.

For the compound `NCCC[Si-]123OCC[N+]1(CCO2)CCO3` (centres undefined), the MIC with Bacillus sp., with Penicillium chrysogenum, in the data set with Pseudomonas aeruginosa [8], with Aspergillus niger and in the data set with Fusarium solani was 1.2 µg/mL (≈ 5.16 µM) throughout. In addition, the IC50 is 65 µg/mL (≈ 280 µM) with MCF7 [9] and 150 µg/mL (≈ 646 µM) in the data set on HepG2.

As for `CCS(=O)(=O)c1cccnc1-c1nc2cc(S(=O)(=O)C(F)(F)F)ccc2o1`, the LC50 with Plutella xylostella worked out at 0.21 µg/mL (≈ 0.5 µM); in the data set with Mythimna separata, 4.68 µg/mL (≈ 11.1 µM).

Turning to `O=C1c2ccccc2C(=O)N1CCC[Si-]123OCC[N+]1(CCO2)CCO3` (centres undefined), the MIC in the data set on Staphylococcus aureus [10], in the data set with Escherichia coli [11], in the data set with Acinetobacter baumannii and in the data set on Pseudomonas aeruginosa [12] was 0.2 µg/mL (≈ 0.552 µM) each time.

Turning to `CC(C)C(C)(C)[Si](C)(C)OC[C@H]1C[C@@H](n2cc(Br)c(=O)[nH]c2=O)C=C1CO`, in the data set with BJAB, the CC50 amounted to 9 µM.

On Acetylcholinesterase, `C[Si]1(Cl)C=CC(=O)C1=P(c1ccccc1)(c1ccccc1)c1ccccc1` (centres undefined) registered an IC50 of 0.113 µM.

For `CC(C)(C)[Si](C)(C)OC1OC(=O)C(Br)=C1Br` (centres undefined), the IC50 with HCT-116 came out at 1.3 µM.

In the case of `CC(C)=CCN1CC[Si]2(CCCc3ccccc32)CC1`, in [13], the Ki was 0.3 µM.

As for `CCCCCCCCCOCCc1sc[n+](CCC[Si](C)(C)C)c1C.[I-]`, the LC50 in the data set on NIH3T3, with MG-22A [14] and in the data set on HT-1080 [15] was 0.1 µg/mL in each case.

`CCN(CC)c1ccc(/C=N/CCC[Si](OC)(OC)OC)c(OCc2cn(CCOc3ccccc3[N+](=O)[O-])nn2)c1`: the MIC against Pseudomonas aeruginosa [3] was found to be 6.3 µg/mL (≈ 10.5 µM); with Escherichia coli [4], 6.3 µg/mL (≈ 10.5 µM); with Staphylococcus aureus [5] it was 0.195 µg/mL (≈ 0.325 µM).

Take `Cn1cc(C(=O)C(C#N)c2ccc([Si](C)(C)C)cc2)c(C(F)F)n1` (centres undefined): in the data set on Rhizoctonia solani, the inhibition at 1 µg/mL was 91.2%.

For `c1ccc(CN2CC[Si]3(CCCc4ccccc43)CC2)cc1`, the Ki in [13] was found to be 0.3 µM.

On to `CCCCCCCCCC[Si](C)(CCCCCCCCCC)OCC[N+](C)(C)C.[I-]`, for which the results for the IC50 in the data set with HT-1080 [16] and in the data set on MG-22A [17] were 0.3 µg/mL and 1 µg/mL, respectively.

Regarding `CC1C[N+]23CC(C)O[Si-]2(CCCNCC/N=C/c2ccc4ccc5cccc6ccc2c4c56)(O1)OC(C)C3` (centres undefined), the IC50 with Giardia intestinalis is 44.6 µM; with Entamoeba histolytica, 1.14 µM.
